Test [1] has as its target T1, wildtype RET kinase (N-terminal GST tagged recombinant human RET cytoplasmic domain, aa 658-end) (Homo sapiens, UniProt P07949).
T1 construct: human RET cytoplasmic domain (aa 658-end); GST (N); purchased Eurofins 14-570M
T1 sequence (P07949 658-1114 limits assumed): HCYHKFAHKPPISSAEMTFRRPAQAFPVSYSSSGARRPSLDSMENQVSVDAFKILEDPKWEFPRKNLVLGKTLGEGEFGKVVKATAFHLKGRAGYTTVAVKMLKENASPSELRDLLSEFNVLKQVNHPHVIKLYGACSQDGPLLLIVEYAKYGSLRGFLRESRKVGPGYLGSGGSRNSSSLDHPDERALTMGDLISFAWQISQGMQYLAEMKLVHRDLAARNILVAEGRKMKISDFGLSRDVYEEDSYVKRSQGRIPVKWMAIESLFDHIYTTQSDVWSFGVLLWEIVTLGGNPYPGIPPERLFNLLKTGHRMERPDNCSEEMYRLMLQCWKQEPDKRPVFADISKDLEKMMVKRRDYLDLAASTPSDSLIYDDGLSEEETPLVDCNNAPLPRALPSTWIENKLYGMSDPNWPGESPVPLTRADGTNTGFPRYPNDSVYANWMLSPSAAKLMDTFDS
Put plainly: RET enzyme assay (HTRF KinEASE TK), wildtype. The format is biochemical. The following applies: 1 mM ATP, 60 min incubation at 22° C. The procedure: Assay A: RET Enzyme Assay
Compounds of formulas I, II, or III are screened for their ability to inhibit wildtype, V804M, and G810S mutant RET kinase using CisBio's HTRF® KinEASE™TK assay technology. N-terminal GST tagged recombinant human RET cytoplasmic domain (aa 658-end) from Eurofins ([…]; Catalog No. 14-570M) or N-terminal GST tagged recombinant human V804M mutant RET cytoplasmic domain (aa 658-end) from Millipore (1.25 nM enzyme; Catalog No. 14-760) or N-Terminal GST-tagged recombinant human G810S (aa-658-end) (1.25 nM Enzyme; produced in insect cells) is incubated with 62.5 nM TK-substrate biotin (CisBio, part of Catalog No. 62TK0PEC) and 1 mM ATP along with test compound (0.4% final DMSO in the assay) in a 1× Cisbio enzymatic buffer consisting of […], 5 mM MgCl2, 0.04% BSA and 0.05% Tween20 in a volume of 10 μL. Compounds are typically prepared in a threefold serial dilution in DMSO and added to the assay to give the appropriate final concentration. After a 40-60 min (40 min for V804M, 60 min for WT and G810S) incubation at 22° C., the reaction is quenched by adding quench solution (10 μL) containing 7.8 nM Streptavidine-XL665 and 0.5×TK-ab-Cryptate in HTRF detection buffer (all from CisBio, part of Cat. No. 62TK0PEC). After a 60-80 min incubation (60 minutes for WT, 80 minutes for V804M and G810S) at 22° C., the extent of reaction is determined using a PHERastar plate reader via HTRF detection at excitation/emission 337/665 nm. Percent of inhibition is calculated with 0% inhibition referring to control conditions containing no compound (0.4% DMSO only) and 100% inhibition represented by conditions containing no enzyme. The % inhibition values are fit to a 4 parameter logistic curve, and the determined IC50 value is defined as the estimated concentration of inhibitor at the inflexion point of the fitted curve.
(In general: TR-FRET usually uses a lanthanide donor and a delayed reading to cut background.)

The target of test [2] is T2, KIF5B-RET WT in HEK293 cells (Homo sapiens, UniProt P07949).
T2 construct: expressed in transfected cells; host or cells: HEK293; the other entry of the earlier key: KIF5B (P33176, Kinesin-1 heavy chain)
T2 sequence (P07949 713-1063 limits assumed): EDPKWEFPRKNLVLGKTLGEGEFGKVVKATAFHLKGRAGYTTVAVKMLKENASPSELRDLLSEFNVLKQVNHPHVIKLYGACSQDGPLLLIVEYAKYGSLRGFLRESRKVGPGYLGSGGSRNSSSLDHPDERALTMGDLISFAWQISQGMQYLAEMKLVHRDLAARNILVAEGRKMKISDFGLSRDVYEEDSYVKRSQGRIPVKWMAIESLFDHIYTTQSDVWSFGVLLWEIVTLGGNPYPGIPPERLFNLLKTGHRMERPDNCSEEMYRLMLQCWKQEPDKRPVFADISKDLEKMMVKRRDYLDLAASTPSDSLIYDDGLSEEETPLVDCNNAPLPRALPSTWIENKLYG
Put plainly: RET cell assay (In-Cell Western, phospho-RET Y1062), wildtype. It counts as cell-based. The following applies: HEK293, doxycycline-induced KIF5B-RET WT, 1 hr compound treatment; read-out: EC50, inhibition of intracellular autophosphorylation of RET at tyrosine 1062, wildtype cells. The procedure:
Compounds of formulas (I), (II), and (III) are screened for their ability to inhibit the intracellular autophosphorylation of RET at tyrosine 1062 as detected by In-Cell Western. HEK293 cells containing a doxycycline-inducible plasmid for inducible expression of KIF5B-RET WT and RET mutant forms V804M and G810S are seeded at 25,000 cells/well into black poly-D-lysine pre-coated 384-well plates (Corning, Catalog No. 356697). Expression of KIF5B-RET is induced with doxycycline at 1 μg/mL and cells are incubated at 37° C. overnight. Compounds are prepared in a threefold serial dilution in DMSO before further diluting 1:100 in media prior to the addition to the cells (0.1% final DMSO concentration). Compound treatment is performed for 1 hr at 37° C. followed by fixation of cells with 4% formaldehyde for 20 min at RT and cell permeabilisation with ice-cold MeOH for 10 min at RT. Cells are incubated with Intercept® blocking buffer (Li—COR, Catalogue No. 927-70010) for 1 hr at RT. Incubation with primary antibodies against human phospho-RET (Y1062) (R&D, Catalogue No. AF5009, 1/250 dilution) and human glyceraldehyde-3-phosphate dehydrogenase (clone 6C5, Merck, Catalog No. MAB374, 1/1000 dilution) are performed overnight at 4° C. Incubation with secondary antibodies IRDye® 800CW goat anti-rabbit IgG (Li—COR, Catalogue No. 926-32211, 1/1000 dilution) and IRDye® 680CW goat anti-mouse IgG (Li—COR, Catalogue No. 926-68070, 1/1000 dilution) are performed for 1 hr at RT. All antibody dilutions are done in Intercept® blocking buffer containing 0.05% Tween20. After washing cells with PBS-T (Cell Signaling technology, Catalogue No. 9809), the images are acquired on a Li—COR Odyssey LCx at 700 and 800 nm. Percent of DMSO control is calculated with 100% signal referring to control conditions containing no compound (0.4% DMSO only) and 0% signal represented by conditions containing control compound. The % of DMSO control values are fit to a 4 parameter logistic curve, and the determined EC50 value is defined as the estimated concentration of inhibitor at the inflexion point of the fitted curve.

For `CC(C(=O)Nc1cc(C(C)(C)C(C)(F)F)on1)c1ccc(-c2nn(C(C)C)c(N)c2C(N)=O)cc1` (single isomer, unassigned; isomer 2) [Example 76, 5-Amino-3-[4-(1-[[5-(3,3-difluoro-2-methylbutan-2-yl)-1,2-oxazol-3-yl]carbamoyl]ethyl)phenyl]-1-isopropylpyrazole-4-carboxamide, Isomer 2], the IC50 in test [1] was less than 100 nM. In addition, the EC50 in test [2] is less than 100 nM.

Regarding `CC(C(=O)Nc1cc(C(C)(C)C)sn1)c1ccc(-c2nn(C(C)C)c(N)c2C(N)=O)cc1` (single isomer, unassigned; isomer 2) [Example 80, 5-Amino-3-(4-[1-[(5-tert-butyl-1,2-thiazol-3-yl)carbamoyl]ethyl]phenyl)-1-isopropylpyrazole-4-carboxamide, isomer 2], the 50% inhibitory concentration (IC50) in test [1] was less than 100 nM. For the same compound, the EC50 in test [2] was less than 100 nM.

For the compound `CCC(C)(C)c1cc(NC(=O)C(C)c2ccc(-c3nn(C(C)C)c(N)c3C(N)=O)cn2)on1` (single isomer, unassigned; isomer 2) [Example 84, 5-Amino-1-isopropyl-3-[6-[2-[[3-(1,1-dimethylpropyl)isoxazol-5-yl]amino]-1-methyl-2-oxo-ethyl]-3-pyridyl]pyrazole-4-carboxamide, Isomer 2], the IC50 in test [1] is less than 100 nM. For the same compound, the EC50 in test [2] was less than 100 nM.

For the compound `CC(C(=O)Nc1cc(C(C)(C)C(F)(F)F)no1)c1ccc(-c2nn(C(C)C)c(N)c2C(N)=O)cn1` (single isomer, unassigned; isomer 2) [Example 90, 5-Amino-1-isopropyl-3-[6-[1-methyl-2-oxo-2-[[3-(2,2,2-trifluoro-1,1-dimethyl-ethyl)isoxazol-5-yl]amino]ethyl]-3-pyridyl]pyrazole-4-carboxamide, Isomer 2], in test [1], the half-maximal inhibitory concentration (IC50) was less than 100 nM. Also, in test [2], the concentration for a half-maximal effect (EC50) was less than 100 nM.

Regarding `CC(C(=O)Nc1cc(-c2ccc(Cl)cc2Cl)no1)c1ccc(-c2nn(C(C)C)c(N)c2C(N)=O)cn1` (single isomer, unassigned; isomer 2) [Example 94, 5-Amino-1-isopropyl-3-[6-[2-[[3-(2,4-dichlorophenyl)isoxazol-5-yl]amino]-1-methyl-2-oxo-ethyl]-3-pyridyl]pyrazole-4-carboxamide, Isomer 2], in test [1], the IC50 is less than 100 nM. Besides, the EC50 in test [2] is less than 100 nM.

What is called IC50 is the concentration that inhibits the measured activity by half. The EC50 is the concentration that produces a half-maximal response.

Values taken from US11613533B2, “Compounds useful for inhibiting RET kinase” (Eli Lilly and Company, priority 2020, dated 2023).
